Data on 13 compounds can be found in patent publication US20040058380A1 (priority 2002, published 2004).

Read-outs that look alike come from different tables or passages of the source.

Assay in test [1]: not given
This is another data set of the same source.

Assay in test [2]: not given
The source holds these as a separate data set.

Assay in test [3]: not given
The source holds these as a separate data set.

In the case of `NC(Cc1c[nH]c2ccccc12)C(=O)O` (racemic) [DL-tryptophan], the “potentiometric selectivity coefficient of DPA sensor (j: interference)” value was 2.22 × 10^−3.
Same read-out and setting: then `O=C(O)C[C@@H](O)C(=O)O` [D(+)-malic acid], with 35.56.
Consider `O=C(O)c1cccc(C(=O)O)n1` [DPA, pyridine-2,6-dicarboxylic acid], for which the “DPA adsorbed in the sensor concentrated versus control” value (pH 7.2) is recorded as 23 times.
For the compound `O=P(O)(O)O` [H3PO4], the “potentiometric selectivity coefficient of MPA sensor to interferences” value in test [1] is listed as 7.5×10^−3.
With `N[C@@H](Cc1ccc(O)cc1)C(=O)O` [L-tyrosine], the “potentiometric selectivity coefficient of DPA sensor (j: interference)” value is recorded as 2.22 × 10^−3.
Take `O=C(O)C[C@@H](NC(=O)OCc1ccccc1)C(=O)O` [N-CBZ-D-Asp]: the D-Asp sensor output in test [2] (0.20 mM) was found to be 47 Mv; in test [2] (0.33 mM), 55 Mv; in test [2] (0.50 mM) it was 62 Mv; in test [2] (0.64 mM), 68 Mv; in test [2] (0.79 mM) it was 71 Mv; in test [2] (0.93 mM), 76 Mv. For the same compound, the D-Asp sensor output is given as 100 Mv in test [2] (1.49 mM), 158 Mv in test [2] (2.79 mM), 192 Mv in test [2] (4.09 mM) and 203 Mv in test [2] (5.32 mM). For the same compound, the “potentiometric selectivity coefficient for L-isomer in the presence of D-isomer” value in test [3] is listed as 9×10^−3. Further, the “potentiometric selectivity coefficient for N-CBZ-L-Asp with respect to N-CBZ-D-Asp” value in test [3] (pH 6.8) turned out to be 0.08.
Turning to `O=C(O)C[C@H](NC(=O)OCc1ccccc1)C(=O)O` [N-CBZ-L-Asp], in test [2], the “potentiometric selectivity coefficient for D-isomer in the presence of L-isomer” value was 4×10^−3. Further, the L-Asp sensor output is on record as 37 mV in test [3] (0.095 mM); 49 mV in test [3] (0.20 mM); 59 mV in test [3] (0.33 mM); 65 mV in test [3] (0.50 mM); 72 mV in test [3] (0.64 mM); 78 mV in test [3] (0.79 mM). In addition, the L-Asp sensor output turned out to be 84 mV in test [3] (0.93 mM); 114 mV in test [3] (1.49 mM); 172 mV in test [3] (2.79 mM); 205 mV in test [3] (4.09 mM); 222 mV in test [3] (5.32 mM).
In the case of `COC(=O)C=C(C)OP(=O)(OC)OC` [phosdrin], the “potentiometric selectivity coefficient of MPA sensor to interferences” value in test [1] is listed as 3.33 × 10^−4.
Turning to `Cc1cc2nc3c(=O)[nH]c(=O)nc-3n(C[C@H](O)[C@H](O)[C@H](O)CO)c2cc1C` [riboflavin], the “potentiometric selectivity coefficient of DPA sensor (j: interference)” value was determined as 7.78.
On the same count and under the same terms, then CaCO3, with 2.22; and K2HPO4, with 4.44.
Same read-out and setting: for KCl the value was 44.4; for NaCl, 20.
